Measured values taken from patent publication US7553966B2, “Glucocorticoid mimetics, methods of making them, pharmaceutical compositions, and uses thereof” (Boehringer Ingelheim Pharmaceuticals, Inc., priority 2002, dated 2009).

How the values were obtained:
[1] = molecular target: T1, human glucocorticoid receptor (GR) complex (Homo sapiens, UniProt P04150); experiment: Glucocorticoid Receptor Competitive Binding Assay (fluorescence polarization, TAMRA-labeled dexamethasone probe); settings: qualitative statement; competition with TAMRA-labeled dexamethasone
T1 construct: made in house; host or cells: insect expression system (baculovirus lysate)
T1 sequence (P04150 1-777): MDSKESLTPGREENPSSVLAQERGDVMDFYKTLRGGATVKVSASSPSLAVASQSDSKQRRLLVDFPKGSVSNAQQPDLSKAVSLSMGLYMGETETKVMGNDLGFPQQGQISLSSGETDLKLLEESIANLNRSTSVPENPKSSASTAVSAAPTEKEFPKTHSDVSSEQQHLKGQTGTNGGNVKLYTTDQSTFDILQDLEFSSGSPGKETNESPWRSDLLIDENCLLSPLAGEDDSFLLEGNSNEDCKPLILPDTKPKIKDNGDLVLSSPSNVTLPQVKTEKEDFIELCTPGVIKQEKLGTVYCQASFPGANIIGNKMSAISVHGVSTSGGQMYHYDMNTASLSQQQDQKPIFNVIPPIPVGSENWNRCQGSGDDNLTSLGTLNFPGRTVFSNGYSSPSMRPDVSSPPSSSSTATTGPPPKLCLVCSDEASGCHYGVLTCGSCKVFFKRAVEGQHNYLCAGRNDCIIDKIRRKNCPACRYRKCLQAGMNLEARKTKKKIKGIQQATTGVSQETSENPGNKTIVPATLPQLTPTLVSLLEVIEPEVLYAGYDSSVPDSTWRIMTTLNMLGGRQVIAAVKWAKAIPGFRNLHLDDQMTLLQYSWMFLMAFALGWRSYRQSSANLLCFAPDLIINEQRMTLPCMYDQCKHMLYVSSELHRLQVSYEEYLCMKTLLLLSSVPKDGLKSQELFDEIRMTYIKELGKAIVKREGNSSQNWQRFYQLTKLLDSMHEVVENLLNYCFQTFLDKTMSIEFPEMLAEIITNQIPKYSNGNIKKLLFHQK
Method in brief: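 Competition with TAMRA-dexamethasone for a human GR complex expressed in insect cells, read by fluorescence polarization. Buffer was 10 mM TES, 50 mM KCl, 20 mM Na2MoO4, 1.5 mM EDTA, 0.04% CHAPS, 10% glycerol, 1 mM DTT, pH 7.4.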

glucocorticoid receptor = experiment: Glucocorticoid Receptor Cell Assays (agonist activity in one or more of the above assays); assay type: cell-based; settings: qualitative statement; assay not specified
Experimental: B. Glucocorticoid Receptor Cell Assays
1. Induction of Aromatase in Fibroblasts (Cell Assay for Transactivation)
Dexamethasone, a synthetic ligand to the glucocorticoid receptor (GR), induces expression of aromatase in human foreskin fibroblast cells. The activity of aromatase is measured by the conversion of testosterone to estradiol in culture media.
On the day of the experiment, the media in the wells is replaced with fresh media. Cells are treated with test compounds to final concentrations of 10^−5 M to 10^−8 M, and testosterone to a final concentration of 300 ng/mL. Each well has a total volume of 100 μL. Samples are made in duplicates. Control wells include: (a) wells that receive testosterone only, and (b) wells that receive testosterone plus 2 μM of dexamethasone to provide maximum induction of aromatase. Plates are incubated at 37° C. overnight (15 to 18 hours), and supernatants are harvested at the end of incubation. […] The amount of estradiol is inversely proportional to the ELISA signals in each well. The extent of aromatase induction by test compounds is expressed as a relative percentage to dexamethasone. EC50 values of test compounds are derived by non-linear curve fitting.
2. Inhibition of IL-6 Production in Fibroblasts (Cell Assay for Transrepression)
Human foreskin fibroblast cells produce IL-6 in response to stimulation by pro-inflammatory cytokine IL-1.
On the next day, media in the wells is replaced with fresh media. Cells are treated with IL-1 (rhIL-1α, R&D Systems Cat. No. 200-LA) to a final concentration of 1 ng/mL, and with test compounds to final concentrations of 10^−5 M to 10^−8 M, in a total volume of 200 μL per well. Samples are done in duplicates. […] Positive control wells receive IL-1 only and represent maximum (or 100%) amount of IL-6 production. Plates are incubated at 37° C. overnight (15 to 18 hours), and supernatants are harvested at the end of incubation. IL-6 levels in the supernatants are determined by the ELISA kits for IL-6 (MedSystems Diagnostics GmbH, Vienna, Austria, Cat. No. BMS213TEN) according to manufacture's instructions. The extent of inhibition of IL-6 by test compounds is expressed in percentage relative to positive controls. IC50 values of test compounds are derived by non-linear curve fitting.
Evaluation of agonist or antagonist activity of compounds binding to the glucocorticoid receptor may be determined by any of the assays.
3. Modulation of Tyrosine Aminotransferase (TAT) Induction in Rat Hepatoma Cells
Testing of compounds for agonist or antagonist activity in induction of tyrosine aminotransferase (TAT) in rat hepatoma cells.
H4-II-E-C3 cells were incubated overnight in 96 well plates (20,000 cells/100 μL/well) in MEM medium containing 10% heat inactivated FBS and 1% nonessential amino acids. On the next day, cells were stimulated with the indicated concentrations of dexamethasone or test compound (dissolved in DMSO, final DMSO concentration 0.2%) for 18 hours. Control cells were treated with 0.2% DMSO. After 18 hours, the cells were lysed in a buffer containing 0.1% Triton X-100 and the TAT activity was measured in a photometric assay using tyrosine and alpha-ketoglutarate as substrates.
For measuring antagonist activity, the hepatoma cells were pre-stimulated by addition of dexamethasone (concentration ranges from 3×10^−9 M to 3×10^−8 M) shortly before the test compound was applied to the cells.
4. Modulation of MMTV-Luc Induction in HeLa Cells
Testing of compounds for agonist or antagonist activity in stimulation of MMTV-(mouse mammary tumor virus) promoter in HeLa cells.
Cells were cultured overnight in DMEM medium without phenol red, supplemented with 3% CCS (charcoal treated calf serum) and then transferred to 96 well plates (15,000 cells/100 μL/well).

Compound	activity in the GR binding assay [1]	activity as agonists of the glucocorticoid receptor function in one or more of the above assays (glucocorticoid receptor)
COc1ccc(F)cc1C(C)(C)CC(O)(Cc1cc2ccccc2[nH]1)C(F)(F)F (stereo not shown) [1,1,1-Trifluoro-4-(5-fluoro-2-methoxyphenyl)-2-(1H-indol-2-ylmethyl)-4-methylpentan-2-ol]	potent activity	potent agonists
CC(C)(CC(O)(Cc1cc2ccncc2[nH]1)C(F)(F)F)c1cccc2c1OCC2 (stereo not shown) [4-(2,3-Dihydrobenzofuran-7-yl)-1,1,1-trifluoro-4-methyl-2-(1H-pyrrolo[2,3-c]pyridin-2-ylmethyl)pentan-2-ol]	potent activity	potent agonists
CC(C)(CC(O)(Cc1cc2ccccc2[nH]1)C(F)(F)F)c1cccc2c1OCC2 (stereo not shown) [4-(2,3-dihydrobenzofuran-7-yl)-1,1,1-trifluoro-2-(1H-indol-2-ylmethyl)-4-methylpentan-2-ol]	potent activity	potent agonists
Cc1cccc2[nH]c(CC(O)(CC(C)(C)c3cc(F)ccc3O)C(F)(F)F)cc12 (stereo not shown) [4-Fluoro-2-[4,4,4-trifluoro-3-hydroxy-1,1-dimethyl-3-(4-methyl-1H-indol-2-ylmethyl)butyl]phenol]	potent activity	potent agonists
Cc1ccc(F)cc1C(C)(C)CC(O)(Cc1cc2c(C)cccc2[nH]1)C(F)(F)F (stereo not shown) [1,1,1-Trifluoro-4-(5-fluoro-2-methylphenyl)-4-methyl-2-(4-methyl-1H-indol-2-ylmethyl)pentan-2-ol]	potent activity	potent agonists
CC(C)(CC(O)(Cc1[nH]c2ccccc2c1C#N)C(F)(F)F)c1cc(F)cc2c1OCC2 (stereo not shown) [2-[4-(5-Fluoro-2,3-dihydrobenzofuran-7-yl)-2-hydroxy-4-methyl-2-trifluoromethylpentyl]-1H-indole-3-carbonitrile]	potent activity	potent agonists
CC(C)(CC(O)(Cc1cc2ccncc2[nH]1)C(F)(F)F)c1ccccc1 (stereo not shown) [1,1,1-Trifluoro-4-methyl-4-phenyl-2-(1H-pyrrolo[2,3-c]pyridin-2-ylmethyl)pentan-2-ol]	potent activity	potent agonists
Cc1cc(C#N)cc2[nH]c(CC(O)(CC(C)(C)c3cccc(F)c3)C(F)(F)F)cc12 (stereo not shown) [2-[4-(3-Fluorophenyl)-2-hydroxy-4-methyl-2-trifluoromethylpentyl]-4-methyl-1H-indole-6-carbonitrile]	potent activity	potent agonists
COc1ccc(Br)cc1C(C)(C)CC(O)(Cc1ccnc2ccccc12)C(F)(F)F (stereo not shown) [4-(5-Bromo-2-methoxyphenyl)-1,1,1-trifluoro-4-methyl-2-quinolin-4-ylmethylpentan-2-ol]	potent activity	potent agonists
Cc1ccc(F)cc1C(C)(C)CC(O)(Cc1cc2ccccc2[nH]1)C(F)(F)F (stereo not shown) [1,1,1-Trifluoro-4-(5-fluoro-2-methylphenyl)-2-(1H-indol-2-ylmethyl)-4-methylpentan-2-ol]	potent activity	potent agonists
Cc1cc(C#N)cc2[nH]c(CC(O)(CC(C)(C)c3cc(F)ccc3O)C(F)(F)F)cc12 (stereo not shown) [2-[4-(5-Fluoro-2-hydroxyphenyl)-2-hydroxy-4-methyl-2-trifluoromethylpentyl]-4-methyl-1H-indole-6-carbonitrile]	potent activity	potent agonists
CC(C)(CC(O)(Cc1cc2cnccc2[nH]1)C(F)(F)F)c1ccccc1 (stereo not shown) [1,1,1-Trifluoro-4-methyl-4-phenyl-2-(1H-pyrrolo[3,2-c]pyridin-2-ylmethyl)pentan-2-ol]	potent activity	potent agonists
COc1ccc(F)cc1C(C)(C)CC(O)(Cc1cc2ccccc2[nH]1)C1CC1 (stereo not shown) [2-Cyclopropyl-4-(5-fluoro-2-methoxyphenyl)-1-(1H-indol-2-yl)-4-methylpentan-2-ol]		agonists
CC(C)(CC(O)(Cc1cc2cc(C#N)ccc2[nH]1)C(F)(F)F)c1cccc2c1OCC2 (stereo not shown)		potent agonists
Cc1ccc(F)cc1C(C)(C)CC(O)(Cc1cc2ccncc2[nH]1)C(F)(F)F (stereo not shown) [1,1,1-Trifluoro-4-(5-fluoro-2-methylphenyl)-4-methyl-2-(1H-pyrrolo[2,3-c]pyridin-2-ylmethyl)pentan-2-ol]		potent agonists
CC(C)(CC(O)(Cc1[nH]c2ccccc2c1C#N)C(F)(F)F)c1cccc2c1OCC2 (stereo not shown) [2-[4-(2,3-Dihydrobenzofuran-7-yl)-2-hydroxy-4-methyl-2-trifluoromethylpentyl]-1H-indole-3-carbonitrile]		potent agonists
COc1ccc(Br)cc1C(C)(C)CC(O)(Cc1cc2c(C)cc(C#N)cc2[nH]1)C(F)(F)F (stereo not shown)		potent agonists
COc1c(C(C)(C)CC(O)(Cc2cc3ccccc3[nH]2)C(F)(F)F)ccc2ccccc12 (stereo not shown) [1,1,1-Trifluoro-2-(1H-indol-2-ylmethyl)-4-(1-methoxynaphthalen-2-yl)-4-methylpentan-2-ol]	potent activity	
CC(C)(CC(O)(Cn1cc(C#N)c2ccccc21)C(F)(F)F)c1cccc2c1OCC2 (stereo not shown)		potent agonists
